Experimental data: patent publication US8859508B2, “Application of 5-methyl-1,3-benzenediol or derivatives thereof in the preparation of medicines and functional foods for treatment or prevention of depression” (Kunming Institute of Botany, Chinese Academy of Sciences, priority 2007, dated 2014)
Entries after “also recorded” stand apart in the source; their conditions may differ.

Columns and labels:
DD model mice = assay: TST in constant darkness (DD) model mice; type: in vivo, mouse; conditions: for Immobility time (s) (mean ± SEM): oral once a day for 1 week
Procedure: (§1) Kunming mice (Certificate Number: A4CXK(Chuan)2003-16) from the Institute of Experimental Animals, People's Hospital of Sichuan Province, were used. They were 3-4 weeks old at the beginning of the experiments and weighed 25-30 g. ORG was prepared as described in Example 1. Animals were divided into experimental groups with different doses, vehicle control groups, and an imipramine group (Sigma, Batch No. 106k1588) as positive control.
DD model in mice: Mice were kept under 24 h continuous dark conditions. The replacement of padding, addition of food and water, and other operations were undertaken in the condition that the intensity of red light was less than 1.0 lux. The period of this condition lasted for 28 days. In the last week, ORG was administered orally once a day for 1 week. The FST and TST were carried out 30 min after the last administration. Methods and data analysis were as described above.

rats = assay: Footshock-induced freezing behavior test in rats; type: in vivo, rat; conditions: i.p. 24 h and 5 h before test
Procedure: as §1, with “experiment” for “experiments”, “drug administration” for “experimental”, “doses of ORG, a” for “doses,”, “group,” for “groups,”, “a diazepam” for “an imipramine”, “(Jinyao Ltd. Co.,” for “(Sigma,”
Footshock-induced freezing behavior: Animals received an i.p. injection of ORG or vehicle 24 h and 5 h before being placed in a standard conditioning chamber (Med Associates, USA) for a 10 min training session. Two, 4, 6, 8, and 10 min after the onset of the session, a footshock (0.8 mA, 2 s) was delivered through the grid floor of the chamber. The freezing time during the last 5 min were recorded. Rats were placed in the chamber again without footshock 24 h after the first training, and the freezing time was recorded.
Data analysis: The results of the test are expressed as mean±SEM. One-way ANOVA was used followed by the LSD test with SPSS 11 software. The significance level was set at P<0.05.

Kunming mice = assay: Acute toxicity test of ORG in mice; type: in vivo; conditions: mice, 1750 mg/kg oral
Procedure: (§2) Kunming mice (Certificate Number: A4CXK(Chuan)2003-16) from the Institute of Experimental Animals, People's Hospital of Sichuan Province, were used. They were 3-4 weeks old and at the beginning of the experiment and weighed 25-30 g. ORG was prepared as described in Example 1. ORG (1750 mg) was dissolved in 10 ml NS to give a concentration of 175 mg/ml. Mice were divided into two groups, the ORG group for evaluation was given ORG and a group was treated with NS for vehicle control. ORG and NS were given to each group orally at a volume of 0.1 ml/10 g.

[1] = Acute toxicity test of ORG in mice; type: in vivo; conditions: mouse, in vivo, 1750 mg/kg; acute toxicity test, Kunming mice, oral; read-out: median toxic dose (TD50)
Procedure: as §2

## Cc1cc(O)cc(OC2OC(CO)C(O)C(O)C2O)c1 [ORG, orcinol-1-O-β-D-glucopyranoside]
DD model mice; DD mice
  therapeutic index = TD50÷ED50: > 1000
DD model mice; DD mice, 5 mg/kg
  Immobility time (s) (mean ± SEM): 146.30 ± 11.66 s
DD model mice; DD mice, 10 mg/kg
  Immobility time (s) (mean ± SEM): 145.31 ± 12.41 s
DD model mice; DD mice, 20 mg/kg
  Immobility time (s) (mean ± SEM): 140.69 ± 14.138 s
DD model mice; DD mice, test 30 min after last dose, 1.25 mg/kg
  Immobility time (s) (mean ± SEM): 171.20 ± 13.02 s
DD model mice; DD model mice, ORG oral
  dose of the best efficacy: 20 mg/kg
DD model mice; Mus musculus, DD model mice, ORG oral
  ED50: ~1.75 mg/kg
rats; 5 mg/kg
  Duration of freezing (s) (mean ± S.E.): 203.90 ± 34.09 s
rats; 20 mg/kg
  Duration of freezing (s) (mean ± S.E.): 100.70 ± 21.78 s
Kunming mice; 14 days
  acute toxicity: survival: All mice survived
  acute toxicity: weight gain: the weight gain was normal
Kunming mice; observed for 14 days, 1750 mg/kg
  acute toxicity: appearance, behavior, mental status, appetite, hair, color, breathing (ethological investigation): did not find abnormalities; also recorded: nothing abnormal was found
Kunming mice; sacrificed on day 14
  acute toxicity: pathological section of visceral organs: no evident abnormalities
[1]
  TD50: > 1750 mg/kg
